# Data: US20120202296A1, “SYSTEM, METHOD, AND APPARATUS FOR MEASURING AFFINITY CONSTANTS” (The Trustees of Columbia University in the City of New York, priority 2011, published 2012)
# How the values were obtained:
# [1] = test system: ds biotinylated-DNA (90 bp) containing an EcoR1 recognition sequence; test: Time-resolved second harmonic (SH) signal on adding EcoR1 to DNA-coated microparticles; format: binding; conditions: PSC-DNA microparticles
# Excerpt: A particular example of how to use the above quantification method and system was experimentally validated as follows. An experimental apparatus was used to measure a time-resolved SH signal that was similar to that described in Yan E C Y, Liu Y, Eisenthal K B (1998) “New method for determination of surface potential of microscopic particles by second harmonic generation.” J Phys Chem B 102:6331-6336 which is hereby incorporated by reference in its entirety. A Princeton Instruments CCD camera was used to acquire light samples. The fundamental laser frequency was centered at 810 nm with approximately 400 mW of average power and a pulse width of approximately 75 femtoseconds (10^−15 sec.; fs). […] Polystyrene carboxylate (PSC) microparticle-DNA bioconjugate particles were prepared in an analogous way to previous synthetic reports.
# FIG. 1A is a figurative illustration of the resulting particles 6. A biotin binding protein 18, NeutrAvidin (NA), is linked to the PSC surface (diameter ¼ 1.0 μm, Invitrogen). A PSC-NA solution with a concentration of 5.6×10^9 particles/mL, was suspended in water at pH ¼ 7.5. To this solution ds biotinylated-DNA 12 (90 bp, Integrated DNA Technologies) containing an EcoR1 recognition sequence 8, which is 15 bp from the end attached to the microparticle, was added to a DNA concentration of 0.69 nM and incubated at 55° C. for 1 h. […]
# [2] = test system: control DNA (6-bp EcoR1 recognition sequence altered); test: Time-resolved SH signal control experiment with DNA whose recognition sequence is altered; format: binding; conditions: control DNA without EcoR1 recognition sequence
substance,measurement,setting,value
"EcoR1: restriction enzyme that binds its DNA recognition sequence, bends and cleaves the DNA",jump of the SH signal when EcoR1 is added,[1]; 2 mM NaCl,9.5%
same,jump of the SH signal when EcoR1 is added,"[1]; NaCl concentration 8.50 mM, NaCl in place of Mg2+",30%
same,jump in the SH signal when EcoR1 is added,[2],did not show any jump in the SH signal
